Source: patent publication US10344024B2, “Compounds as ROR gamma modulators” (Glenmark Pharmaceuticals S.A., priority 2015, dated 2019)

Biological target: T1, GST-tagged ROR gamma ligand binding domain (LBD) (Homo sapiens, UniProt P51449)
T1 construct: purchased Invitrogen
T1 sequence (P51449 269-508 limits assumed): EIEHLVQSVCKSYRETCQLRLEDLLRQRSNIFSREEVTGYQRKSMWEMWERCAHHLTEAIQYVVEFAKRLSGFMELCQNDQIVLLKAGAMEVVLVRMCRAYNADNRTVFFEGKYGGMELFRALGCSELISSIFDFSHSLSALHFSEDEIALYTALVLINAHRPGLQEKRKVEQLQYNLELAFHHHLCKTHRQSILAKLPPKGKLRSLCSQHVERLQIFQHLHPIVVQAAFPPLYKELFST
Test: TR-FRET assay for ROR gamma (LanthaScreen co-activator peptide recruitment)
Format: biochemical
Details: for inhibition at 1 µM: compound concentration 1 μM; for inhibition at 1 µM / inhibition at 10 µM: TR-FRET ratio 520/495, percent of control; for inhibition at 10 µM: compound concentration 10 μM; for IC50: from dose response curve, nonlinear regression, read-out: IC50 range
Excerpt: The compounds described herein were screened for ROR gamma modulator activity using the TR-FRET assay (LanthaScreen™ available from Invitrogen of Carlsbad, Calif.) as described in JBC 2011, 286, 26: 22707-10; and Drug Metabolism and Disposition 2009, 37, 10: 2069-78.
Binding of the co-activator peptide, causes an increase in the TR-FRET signal while binding of an antagonist decreases the recruitment of the co-activator peptide, causing a decrease in the TR-FRET signal compared to control with no compound. The assay was performed using a two-step procedure, pre-incubation step with the compound followed by the detection step on addition of the anti-GST tagged terbium (Tb) and fluorescein tagged fluorophores as the acceptor.
Test compounds or reference compounds such as T0901317 (Calbiochem) were dissolved in dimethylsulfoxide (DMSO) to prepare 10.0 mM stock solutions and diluted to the desired concentration. The final concentration of DMSO in the reaction was 4% (v/v). The assay mixture was prepared by mixing 10 nM of the GST-tagged ROR gamma ligand binding domain (LBD) in the assay buffer containing 25 mM HEPES (pH 7.4), 100 mM NaCl, 5 mM DTT and 0.01% BSA with or without the desired concentration of the compound. The reaction was incubated at 22° C. for 1 hour. The pre-incubation step was terminated by addition of the detection mixture containing 300 nM Fluorescein-D22 co-activator peptide and 10 nM lantha screen Tb-anti GST antibody into the reaction mixture.
After shaking for 5 minutes the reaction was further incubated for 1 hour at room temperature and read at 4° C. on an Infinite F500 reader as per the kit instructions (Invitrogen). The inhibition of test compound was calculated based on the TR-FRET ratio of 520/495. The activity was calculated as a percent of control reaction. IC50 values were calculated from dose response curve by nonlinear regression analysis using GraphPad Prism software.

SMILES	inhibition at 1 µM [%]	inhibition at 10 µM [%]	IC50 [nM]
CCC(F)(F)c1ccc(CC(=O)Nc2ccc(-c3nccnc3-c3ccc(Cl)cc3)cc2)cc1 [Example 1, N-(4-(3-(4-chlorophenyl)pyrazin-2-yl)phenyl)-2-(4-(1,1-difluoropropyl)phenyl) acetamide]	80.9	81.5	< 50
CC(O)C(F)(F)c1ccc(CC(=O)Nc2ccc(-c3nccnc3-c3ccc(Cl)cc3)cc2)cc1 (centres unmarked) [Example 2, N-(4-(3-(4-chlorophenyl)pyrazin-2-yl)phenyl)-2-(4-(1,1-difluoro-2-hydroxypropyl)phenyl)acetamide]	76.1	82.7	< 50
COCC(F)(F)c1ccc(CC(=O)Nc2ccc(-c3nccnc3-c3ccc(Cl)cc3)cc2)cc1 [Example 3, N-(4-(3-(4-Chlorophenyl)pyrazin-2-yl)phenyl)-2-(4-(1,1-difluoro-2-methoxyethyl)phenyl)acetamide]	74	84.8	50 to 100
CC(O)C(F)(F)c1ccc(CC(=O)Nc2ccc(-c3nccnc3-c3cccc(Cl)c3)cc2)cc1 (centres unmarked) [Example 4, N-(4-(3-(3-Chlorophenyl)pyrazin-2-yl)phenyl)-2-(4-(1,1-difluoro-2-hydroxypropyl)phenyl)acetamide]	60.7	77.8	> 500
CCC(F)(F)c1ccc(CC(=O)Nc2ccc(-c3nccnc3-c3ccccc3Cl)cc2)cc1 [Example 5, N-(4-(3-(2-Chlorophenyl)pyrazin-2-yl)phenyl)-2-(4-(1,1-difluoropropyl)phenyl)acetamide]	81.5	84.4	< 50
CCC(F)(F)c1ccc(CC(=O)Nc2ccc(-c3nccnc3-c3ccc(Cl)cc3F)cc2)cc1 [Example 6, N-(4-(3-(4-Chloro-2-fluorophenyl)pyrazin-2-yl)phenyl)-2-(4-(1,1-difluoropropyl)phenyl)acetamide]	87.4	86.4	< 50
CCC(F)(F)c1ccc(CC(=O)Nc2ccc(-c3ncccc3-c3ccc(Cl)cc3)cc2)cc1 [Example 7, N-(4-(3-(4-Chlorophenyl)pyridin-2-yl)phenyl)-2-(4-(1,1-difluoropropyl)phenyl)acetamide]	83	86.2	< 50
CC(O)C(F)(F)c1ccc(CC(=O)Nc2ccc(-c3nccnc3-c3ccc(F)cc3)cc2)cc1 (centres unmarked) [Example 8, 2-(4-(1,1-Difluoro-2-hydroxypropyl)phenyl)-N-(4-(3-(4-fluorophenyl)pyrazin-2-yl)phenyl)acetamide]	73.6	85.3	100 to 500
CC(O)C(F)(F)c1ccc(CC(=O)Nc2ccc(-c3nccnc3-c3ccc(F)c(F)c3)cc2)cc1 (centres unmarked) [Example 9, 2-(4-(1,1-Difluoro-2-hydroxypropyl)phenyl)-N-(4-(3-(3,4-difluorophenyl)pyrazin-2-yl)phenyl)acetamide]	55.2	72.1	> 500
CCC(F)(F)c1ccc(CC(=O)Nc2ccc(-c3nccnc3-c3ccc(F)cc3F)cc2)cc1 [Example 10, N-(4-(3-(2,4-Difluorophenyl)pyrazin-2-yl)phenyl)-2-(4-(1,1-difluoropropyl)phenyl)acetamide]	78.2	83	50 to 100
CCC(F)(F)c1ccc(CC(=O)Nc2ccc(-c3nccnc3-c3ccccc3F)cc2)cc1 [Example 11, 2-(4-(1,1-Difluoropropyl)phenyl)-N-(4-(3-(2-fluorophenyl)pyrazin-2-yl)phenyl)acetamide]	78.8	83.8	< 50
CCC(F)(F)c1ccc(CC(=O)Nc2ccc(-c3nccnc3-c3ccc(C(F)(F)F)cc3)cc2)cc1 [Example 12, 2-(4-(1,1-Difluoropropyl)phenyl)-N-(4-(3-(4-(trifluoromethyl)phenyl)pyrazin-2-yl)phenyl)acetamide]	85.6	83	< 50
CCC(F)(F)c1ccc(CC(=O)Nc2ccc(-c3nccnc3-c3ccc(C)cc3)cc2)cc1 [Example 13, 2-(4-(1,1-Difluoropropyl)phenyl)-N-(4-(3-(p-tolyl)pyrazin-2-yl)phenyl)acetamide]	82.7	84.4	< 50
CCC(F)(F)c1ccc(CC(=O)Nc2ccc(-c3ncccc3-c3ccc(F)cc3)cc2)cc1 [Example 14, 2-(4-(1,1-Difluoropropyl)phenyl)-N-(4-(3-(4-fluorophenyl)pyridin-2-yl)phenyl)acetamide]	74.4	83.8	100 to 500
CCC(F)(F)c1ccc(CC(=O)Nc2ccc(-c3nccnc3-c3ccccc3)cc2)cc1 [Example 15, 2-(4-(1,1-Difluoropropyl)phenyl)-N-(4-(3-phenylpyrazin-2-yl)phenyl)acetamide]	72.2	80.6	100 to 500
CCC(F)(F)c1ccc(CC(=O)Nc2ccc(-c3nccnc3-c3ccc(C#N)cc3)cc2)cc1 [Example 16, N-(4-(3-(4-Cyanophenyl)pyrazin-2-yl)phenyl)-2-(4-(1,1-difluoropropyl)phenyl)acetamide]	69.9	60.5	–
CCC(F)(F)c1ccc(CC(=O)Nc2ccc(-c3nccnc3-c3ccncc3)cc2)cc1 [Example 17, 2-(4-(1,1-Difluoropropyl)phenyl)-N-(4-(3-(pyridin-4-yl)pyrazin-2-yl)phenyl)acetamide]	60.5	74.4	–
CC(O)C(F)(F)c1ccc(CC(=O)Nc2ccc(-c3nccnc3N3CCC(F)(F)CC3)cc2)cc1 (centres unmarked) [Example 18, 2-(4-(1,1-Difluoro-2-hydroxypropyl)phenyl)-N-(4-(3-(4,4-difluoropiperidin-1-yl)pyrazin-2-yl)phenyl)acetamide]	32.4	71.2	–
CC(O)C(F)(F)c1ccc(CC(=O)Nc2ccc(-c3nccnc3N3CCOCC3)cc2)cc1 (centres unmarked) [Example 19, 2-(4-(1,1-Difluoro-2-hydroxypropyl)phenyl)-N-(4-(3-morpholinopyrazin-2-yl)phenyl)acetamide]	42.2	48.8	–
CCC(F)(F)c1ccc(CC(=O)Nc2ccc(-n3nc(C)cc3-c3ccc(F)cc3)cc2)cc1 [Example 20, 2-(4-(1,1-Difluoropropyl)phenyl)-N-(4-(5-(4-fluorophenyl)-3-methyl-1H-pyrazol-1-yl)phenyl)acetamide]	65.5	78	–
CCC(F)(F)c1ccc(CC(=O)Nc2ccc(-c3cnn(C(C)(C)C)c3-c3ccc(F)cc3)cc2)cc1 [Example 21, N-(4-(1-(tert-Butyl)-5-(4-fluorophenyl)-1H-pyrazol-4-yl)phenyl)-2-(4-(1,1-difluoropropyl)phenyl)acetamide]	37.4	38.3	–
CC(O)C(F)(F)c1ccc(CC(=O)Nc2ccc(-c3cnn(C(C)(C)C)c3-c3ccc(F)cc3)cc2)cc1 (centres unmarked) [Example 22, N-(4-(1-(tert-Butyl)-5-(4-fluorophenyl)-1H-pyrazol-4-yl)phenyl)-2-(4-(1,1-difluoro-2-hydroxypropyl)phenyl)acetamide]	46.7	56.2	–
CCC(F)(F)c1ccc(CC(=O)Nc2ccc(-c3nccnc3-c3cnn(C)c3)cc2)cc1 [Example 23, 2-(4-(1,1-Difluoropropyl)phenyl)-N-(4-(3-(1-methyl-1H-pyrazol-4-yl)pyrazin-2-y1)phenyl)acetamide]	36.6	68.6	–
CCC(F)(F)c1ccc(CC(=O)Nc2ccc(-c3nccnc3N3CCN(C(C)=O)CC3)cc2)cc1 [Example 24, N-(4-(3-(4-Acetylpiperazin-1-yl)pyrazin-2-yl)phenyl)-2-(4-(1,1-difluoropropyl)phenyl)acetamide]	61.6	83.6	–
CCC(F)(F)c1ccc(CC(=O)Nc2ccc(-c3nccnc3-c3ccc(=O)n(C)c3)cc2)cc1 [Example 25, 2-(4-(1,1-Difluoropropyl)phenyl)-N-(4-(3-(1-methyl-6-oxo-1,6-dihydropyridin-3-yl)pyrazin-2-yl)phenyl)acetamide]	18.9	59.7	–
